Values of other authors in patent US4833164A (E. I. Du Pont de Nemours and Company, priority 1986, dated 1989).

Tested on: lipoxygenase
Details: Nakadate et al.; Van Wauwe and Goossens; Panganamala et al.

Question: Which “lipoxygenase inhibitor (literature)” value does the source give for `Oc1cccc2ccccc12` [Example 1-naphthol, 1-naphthol] here?
Answer: The value was “lipoxygenase inhibitor”.
